In patent publication US7476691B2, “Sulfamate benzothiophene derivatives as steroid sulfatase inhibitors” (Laboratoire Theramex, priority 2003, dated 2009):

Tests used:
estrone sulfatase [1] = target: T1, estrone sulfatase (Homo sapiens, UniProt P08842); assay: Estrone sulfatase whole-cell assay on MCF-7 cells; format: cell-based; set-up: Whole-cell assays were performed as originally described by Duncan et al. (Cancer Res., 1993, 53: 298-303) on intact MCF-7 cell monolayers; endogenous in cells; host or cells: MCF-7 (human breast adenocarcinoma), intact monolayers; settings: 20 h treatment, 3H-E1S, read-out: IC50 (nM) ± S.E.M., inhibition of estrone sulfatase
T1 sequence (P08842 22-583): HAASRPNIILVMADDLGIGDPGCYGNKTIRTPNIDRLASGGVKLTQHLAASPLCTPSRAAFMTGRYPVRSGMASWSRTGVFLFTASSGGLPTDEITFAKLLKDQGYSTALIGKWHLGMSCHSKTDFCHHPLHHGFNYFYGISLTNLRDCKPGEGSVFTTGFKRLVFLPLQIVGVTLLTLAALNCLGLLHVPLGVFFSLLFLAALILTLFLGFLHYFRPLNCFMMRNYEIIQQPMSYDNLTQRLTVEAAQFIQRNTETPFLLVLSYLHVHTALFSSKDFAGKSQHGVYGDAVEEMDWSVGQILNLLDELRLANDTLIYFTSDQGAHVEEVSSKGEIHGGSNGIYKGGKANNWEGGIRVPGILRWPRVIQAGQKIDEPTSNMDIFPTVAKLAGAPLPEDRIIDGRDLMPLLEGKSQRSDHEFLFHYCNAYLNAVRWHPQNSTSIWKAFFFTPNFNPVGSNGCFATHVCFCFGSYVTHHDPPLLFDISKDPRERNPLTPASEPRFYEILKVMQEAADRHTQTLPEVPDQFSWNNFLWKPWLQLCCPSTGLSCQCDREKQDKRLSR
Experimental: (§1) Two in vitro models on whole cells were used. […] Moreover, these cells were used in the in vivo model of hormono-dependent induced xenografts.
(§2) Estrone Sulfatase Assay on Cells
(§3) Whole-cell assays were performed as originally described by Duncan et al. (Cancer Res., 1993, 53: 298-303) on intact MCF-7 cell monolayers. Assays were carried out with cells in logarithmic growth phase, on 96-well (JEG-3) or 24-well (MCF-7) microplates. Twenty-four hours (JEG-3) or 72 h (MCF-7) before studies, cells were seeded in decomplemented fetal calf serum (dFCS) supplemented medium. Then, the seeding medium was removed and the cells were rinsed with PBS to eliminate any trace of dFCS. Then, ^3H-E1S was added, followed by test compounds ranging from 10^−12 M to 10^−5 M. After 4 h (JEG-3) or 20 h (MCF-7) of treatment, the medium was transferred into either 96-deep-well microplates (JEG-3) or plastic tubes (MCF-7) and centrifuged at 200×g for 10 min to pellet cells before toluene extraction. A fraction of medium was used for toluene extraction in order to separate conjugated substrate and non-conjugated products. The radioactivity in the toluene phase was measured by liquid scintillation counting (LSC). Finally, estrone sulfatase activity was expressed in pmoles of ^3H-E1+^3H-E2 formed per 4 or 20 hours and per μg DNA and estrone sulfatase inhibition in percentage of control activity without inhibitor.

estrone sulfatase [2] = target: T1, estrone sulfatase; assay: Estrone sulfatase whole-cell assay on JEG-3 cells; format: cell-based; set-up: The JEG-3 cell line, derived from a human placental choriocarcinoma, is spontaneously very rich in human estrone sulfatase; endogenous in cells; host or cells: JEG-3 (human placental choriocarcinoma), intact cells; settings: 4 h treatment, 3H-E1S, read-out: IC50 (nM) ± S.E.M., inhibition of estrone sulfatase
Experimental: as §1, §2, §3

An IC50 (estrone sulfatase [1]) of 0.05 ± 0.01 nM and an IC50 (estrone sulfatase [2]) of 7.7 ± 0.4 nM were found for `NS(=O)(=O)Oc1ccc2c(c1)S(=O)(=O)C(CC1CCCCCC1)=C2` [Ex 55, Sulfamic acid, 2-cycloheptylmethyl-benzothiophene-6-yl-1,1-dioxide ester] in this work.
